PubChem BioAssay (NCI)
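96-well plates; 48 h exposure; 5 concentrations. Endpoints by linear interpolation between flanking doses. Not reached: highest tested concentration assigned. At the TGI there is no net growth.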 Where a SMILES comes first, the peptide text is derived from it. [ ]: non-standard residue; d: D form. The star is where a group is joined. X28 = COC1=CC(=O)N(C(=O)[C@@H](O*)C(C)C)[C@H]1Cc1ccccc1; NMeL = CN[C@@H](CC(C)C)C(=O)O; Hexanoyl = CCCCCC(=O)*

Experiments:
Assay in all cases: growth of human tumour cells (NCI), 48 h
[1] = tested on: MALME-3M melanoma
[2] = tested on: HOP-92 NSCLC
[3] = tested on: MDA-MB-435
[4] = tested on: HL-60(TB) leukemia
[5] = tested on: SK-OV-3 ovarian
[6] = tested on: SN12C renal
[7] = tested on: HOP-62 NSCLC
[8] = tested on: DU-145 prostate
[9] = tested on: MDA-N
[10] = tested on: SF-295 CNS
[11] = tested on: NCI-H23 lung
[12] = tested on: SF-539 CNS
[13] = tested on: RXF 393 renal
[14] = tested on: SW-620 colon
[15] = tested on: T-47D breast
[16] = tested on: SK-MEL-28 melanoma
[17] = tested on: SF-268 CNS
[18] = tested on: K-562 leukemia
[19] = tested on: SNB-75 CNS
[20] = tested on: OVCAR-3 ovarian
[21] = tested on: A498 renal
[22] = tested on: CAKI-1 renal
[23] = tested on: HCT-15 colon
[24] = tested on: KM12 colon
[25] = tested on: HCT-116 colon
[26] = tested on: MCF7 breast
[27] = tested on: LOX IMVI melanoma
[28] = tested on: OVCAR-5 ovarian
[29] = tested on: NCI/ADR-RES ovarian
[30] = tested on: CCRF-CEM leukemia
[31] = tested on: MOLT-4 leukemia
[32] = tested on: M14 melanoma
[33] = tested on: U251 CNS
[34] = tested on: NCI-H460 lung
[35] = tested on: COLO 205 colon
[36] = tested on: TK-10 renal
[37] = tested on: RPMI-8226 leukemia
[38] = tested on: HCC-2998 colon
[39] = tested on: NCI-H226 lung
[40] = tested on: EKVX NSCLC
[41] = tested on: HT29 colon
[42] = tested on: UACC-62 melanoma
[43] = tested on: OVCAR-8 ovarian
[44] = tested on: ACHN renal
[45] = tested on: SK-MEL-2 melanoma
[46] = tested on: BT-549 breast
[47] = tested on: 786-0 renal
[48] = tested on: PC-3 prostate
[49] = tested on: SNB-19 CNS
[50] = tested on: NCI-H522 lung
[51] = tested on: A549 NSCLC
[52] = tested on: UACC-257 melanoma
[53] = tested on: OVCAR-4 ovarian
[54] = tested on: IGROV1 ovarian
[55] = tested on: HS 578T breast
[56] = tested on: MDA-MB-231 breast
[57] = tested on: SK-MEL-5 melanoma
[58] = tested on: SR leukemia
[59] = tested on: UO-31 renal

Measured: TGI

CCCCCC(=O)N[C@H](C(=O)N[C@H](C(=O)N(C)[C@@H](CC(C)C)C(=O)N1CCC[C@H]1C(=O)N1CCC[C@H]1C(=O)O[C@H](C(=O)N1C(=O)C=C(OC)[C@@H]1Cc1ccccc1)C(C)C)C(C)C)C(C)C (Hexanoyl-VV[NMeL]PP-X28)
6.2 µM: [4]
> 80.5 µM: [48]
90.3 µM: [13]
> 100 µM: [1] | [2] | [3] | [5] | [6] | [7] | [8] | [9] | [10] | [11] | [12] | [14] | [15] | [16] | [17] | [18] | [20] | [21] | [22] | [23] | [24] | [25] | [26] | [27] | [28] | [29] | [30] | [31] | [33] | [34] | [35] | [36] | [37] | [38] | [39] | [40] | [41] | [42] | [43] | [44] | [45] | [46] | [47] | [50] | [51] | [52] | [53] | [54] | [55] | [56]
> 48.1 µM: [32]
70.8 µM: [19]
> 42.1 µM: [49]

CCc1nnc2sc(-c3ccc(-c4ccc(Cl)cc4Cl)o3)nn12
56 µM: [19]
22.3 µM: [13]
> 100 µM: [1] | [2] | [57] | [3] | [4] | [5] | [6] | [7] | [8] | [9] | [10] | [11] | [58] | [14] | [15] | [16] | [17] | [18] | [59] | [20] | [21] | [22] | [23] | [24] | [25] | [27] | [28] | [29] | [30] | [31] | [32] | [33] | [34] | [35] | [36] | [37] | [39] | [40] | [41] | [43] | [44] | [45] | [46] | [47] | [48] | [49] | [50] | [51] | [52] | [53] | [54] | [55] | [56]

c1ccc(/C(=N/Nc2cnccn2)c2ncccn2)cc1
> 100 µM: [2] | [57] | [3] | [5] | [6] | [7] | [8] | [9] | [10] | [11] | [12] | [13] | [58] | [14] | [16] | [17] | [18] | [19] | [59] | [20] | [22] | [23] | [24] | [25] | [26] | [28] | [29] | [30] | [31] | [32] | [33] | [34] | [35] | [37] | [38] | [40] | [41] | [42] | [43] | [44] | [45] | [46] | [47] | [48] | [49] | [51] | [52] | [53] | [54] | [55] | [56]
44.7 µM: [50]

COCOc1cc(OC)ccc1C=O
61.9 µM: [12]
78.4 µM: [58]
39.1 µM: [13]
54.2 µM: [35]
> 100 µM: [1] | [57] | [4] | [5] | [6] | [7] | [8] | [10] | [11] | [14] | [15] | [16] | [17] | [18] | [19] | [59] | [22] | [23] | [24] | [25] | [26] | [27] | [28] | [30] | [31] | [32] | [33] | [34] | [36] | [39] | [40] | [42] | [43] | [44] | [45] | [46] | [47] | [49] | [50] | [51] | [52] | [53] | [54] | [56]
23.7 µM: [9]
66.8 µM: [41]
52.1 µM: [29]
71.5 µM: [38]
88.8 µM: [48]
63.8 µM: [20]
64.9 µM: [55]
40.6 µM: [3]

Nc1nc(Cl)cc(NCC2(CO)CC(CCCCc3ccccc3)C2)n1 (stereo not drawn)
35.3 µM: [41]
> 100 µM: [1] | [2] | [57] | [3] | [5] | [6] | [7] | [8] | [9] | [10] | [11] | [12] | [13] | [58] | [14] | [16] | [17] | [18] | [19] | [20] | [21] | [22] | [23] | [24] | [25] | [26] | [27] | [28] | [30] | [31] | [32] | [33] | [34] | [35] | [36] | [38] | [39] | [40] | [42] | [43] | [44] | [45] | [46] | [47] | [48] | [49] | [50] | [51] | [52] | [53] | [54] | [55] | [56]
38.3 µM: [4]
86.2 µM: [37]

CC(=O)Nc1ccc(C(=O)N[C@@H]2C(=O)N3[C@@H]2SC(C)(C)[C@@H]3C(=O)O)cn1
> 100 µM: [1] | [2] | [57] | [3] | [4] | [5] | [6] | [7] | [8] | [9] | [10] | [11] | [13] | [14] | [15] | [16] | [17] | [18] | [19] | [59] | [20] | [21] | [22] | [23] | [24] | [25] | [26] | [27] | [28] | [29] | [30] | [31] | [32] | [33] | [34] | [35] | [36] | [37] | [38] | [39] | [40] | [41] | [42] | [43] | [44] | [45] | [46] | [47] | [48] | [49] | [51] | [52] | [53] | [54] | [55] | [56]

CCOC1NC(=O)Oc2ccccc21 (stereo not drawn)
> 100 µM: [1] | [2] | [57] | [3] | [4] | [5] | [6] | [7] | [8] | [9] | [10] | [11] | [12] | [13] | [58] | [14] | [16] | [17] | [18] | [19] | [59] | [20] | [21] | [22] | [23] | [24] | [25] | [26] | [27] | [28] | [29] | [30] | [31] | [32] | [33] | [34] | [35] | [36] | [38] | [39] | [40] | [41] | [42] | [43] | [44] | [45] | [46] | [47] | [48] | [49] | [50] | [51] | [52] | [53] | [54] | [55] | [56]
